Read-outs that look alike come from different tables or passages of the source.
Legend:
Spodoptera litura = assay: Effectiveness on Spodoptera litura (mortality of 3rd instar larvae on sprayed soybean leaves); type: in vivo
Procedure: Effectiveness of Spondoptera litura
Each of the test compounds listed in the following table is processed into an emulsifiable concentrate in accordance with the formulation of Example 6. The emulsifiable concentrate is diluted with water (Dyne®, a spreading agent produced by Takeda Chemical Ind. Ltd., as diluted 3,000-fold) to prepare a 100 ppm aqueous solution.
Using a spray gun (nozzle pressure of 1 kg/cm^2 gauge), 20 ml of the aqueous 100 ppm solution is sprayed over soybean seedlings in a spraying chamber (on 10th day after germination) which have been raised in jiffy pots (6 cm in diameter). Two main leaves are respectively cut off from the seedlings 2 hours and 6 days after the spraying. Each of the leaves is put into an ice cream cup (diameter: 6 cm, depth: 4 cm), and 10 larvae of Spodoptera litura at the 3rd instar are put into each of the cups. The cups are left in a room at 25° C.; after 48 hours, dead larvae are counted. The test is repeated two times. The results are shown in terms of mortality (%) in Table 6. [formula]
The following compounds are used for controls.
The same compounds are used for controls also in the following Test Examples.

Tetranychus urticae = assay: Effectiveness on Tetranychus urticae (rating of effects on kidney bean seedlings); type: in vivo; details: 500 ppm, 20 ml, rating based on percent decrease; for Rating of effect Day-2: 2nd day after treatment; for Rating of effect Day-7: 7th day after treatment
Procedure: Effectiveness on Tetranychus urticae
Each of the compounds listed in the following table is processed into an emulsifiable concentrate in accordance with the formulation of Example 6. The emulsifiable concentrate is diluted with water (Dyne®, a spreading agent produced by Takeda Chemical Ind. Ltd., as diluted 3,000-fold) to prepare a 500 ppm aqueous solution. Ten female adult of Tetranychus urticae are put into each kidney been seedling raised in a jiffy pot (6 cm in diameter), and left in a glass house at 28° C. for 24 hours. Each pot is taken out of the glass house; 20 ml of the aqueous solution as prepared above is spread over each kidney bean seedling. The jiffy pots are laid in the glass house again. Larvae and adult which are alive on the leaves are counted at the 2nd and 7th days after the spreading treatment. The test is repeated two times. The degrees are determined on the basis of percent decrease.

[1] = Toxicological test: oral acute toxicity in mice; parameters: species or system mice (ddY-SLC strained male); details: mouse, in vivo, five-week aged ddY-SLC male mice
[2] = 100 ppm spray, leaves cut 6 days after spraying, dead larvae counted after 48 hours, 25° C., read-out: Mortality 6th day after spraying
[3] = 48 h, read-out: Mortality 2 hours after spraying

Row | Compound | mortality at 100 ppm (Spodoptera litura; [2]) [%] | mortality at 100 ppm (Spodoptera litura; [3]) [%] | Rating of effect Day-2 (Tetranychus urticae) | Rating of effect Day-7 (Tetranychus urticae) | LD50 [1] [mg/kg]
1 | CCCSP(=O)(OCC)Oc1ccccc1Oc1ccc(Br)nn1 (stereo not drawn) [compound 24] | 100 | 100 | 3 (≥90) | 3 (≥90) | ~300
2 | CCCSP(=S)(OCC)Oc1ccccc1Oc1ccc(Cl)nn1 (stereo not drawn) [Compound No. 30, O-Ethyl-S-n-propyl-O-[2-(3-chloropyridazinyl-6-oxy)phenyl]phosphorodithioate] | 100 | 100 | 3 (≥90) | 3 (≥90) | > 300
3 | CCCSP(=S)(OCC)Oc1cccc(Sc2ccc(Cl)nn2)c1 (stereo not drawn) [compound 20] | 90 | 100 | 3 (≥90) | 3 (≥90) | > 300
4 | CCCSP(=S)(OCC)Oc1ccccc1Oc1ccc(OC)nn1 (stereo not drawn) [Compound No. 40] | 100 | 100 | 3 (≥90) | 3 (≥90) | > 300
5 | CCCSP(=O)(OCC)Oc1ccc(Sc2ccc(Cl)nn2)cc1 (stereo not drawn) [Compound No. 4] | 95 | 100 | 3 (≥90) | 3 (≥90) | > 300
6 | CCCSP(=O)(OCC)Oc1ccccc1Oc1ccc(SCC)nn1 (stereo not drawn) [compound 41] | 100 | 100 | 3 (≥90) | 3 (≥90) | ~300
7 | CCCSP(=O)(OCC)Oc1cccc(Sc2ccc(Cl)nn2)c1 (stereo not drawn) [compound 19] | 90 | 100 | 3 (≥90) | 3 (≥90) | > 300
8 | CCCSP(=O)(OCC)Oc1ccccc1Oc1ccc(OC)nn1 (stereo not drawn) [Compound No. 39, O-Ethyl-S-n-propyl-O-[2-(3-methoxypyridazinyl-6-oxy)phenyl]phosphorothioate] | 100 | 100 | 3 (≥90) | 3 (≥90) | ~300
9 | CCCSP(=O)(OCC)Oc1ccccc1Sc1ccc(Br)nn1 (stereo not drawn) [compound 26] | 95 | 100 | 3 (≥90) | 3 (≥90) | ~300

— patent US4740505A, “Pyridazinyloxy (or thio) phenyl phosphates” (priority 1985, dated 1988)
